Data taken from US20090099167A1, “Organic compounds” (Novartis Institutes for Biomedical Research, priority 2004, published 2009).

Legend:
[1] = biological target: Cdk1/cycB (UniProt P06493); test: Cdk1/cycB kinase assay, histone H1 substrate; type: biochemical, starfish; conditions: Table 5; read-out: CDK1/B, IC50 class
In short: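 Active Cdk1/cycB was purified from starfish oocytes arrested in M phase with 1-methyladenine, using p9CKShs-sepharose. Reactions ran 20 min at ambient temperature and were stopped with EDTA. Phosphorylated product was captured on Immobilon P membranes, washed in H3PO4 and EtOH, and counted by scintillation.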

[2] = biological target: HER-1 (Homo sapiens, UniProt P00533); test: HER-1 kinase inhibition; type: biochemical; conditions: Table 5; read-out: HER-1, IC50 class
[3] = biological target: T1, Tek (Homo sapiens, UniProt Q02763); test: Tek kinase inhibition, GST-fused kinase domain; type: biochemical; conditions: Table 5; read-out: Tek, IC50 class
T1 construct: N-terminally GST-fused (pAcG1, Pharmingen) KDR, Flt-1, Flk-1, Tek and PDGFR-β kinase domains are obtained from ProQinase, Freiburg, Germany; host or cells: Sf9 or High Five (baculovirus)
Excerpt: The inhibition of IGF-1R and Ins-R can be determined as follows: The baculovirus donor vector pfbgx3IGFIRcd is used to generate a recombinant baculovirus that expresses the amino acid region 950-1337 of the mature peptide cytoplasmic domain of the human IGF-IR. To generate the cDNA fragment encoding the amino acid region 919-1343 of the intra-cytoplasmic kinase domain of the human insulin receptor, pC5hInsR is used. The fragments of the human IGF-IR and Ins-R are cloned, expressed and small-scale purified as a factor Xa-cleavable glutathione-S-transferase (GST)-fusion protein using the Bac-to-Bac™ system (GIBCO BRL) of recombinant baculovirus generation. Virus containing media is collected from the transfected cell culture and used for infection to increase its titer. Virus containing media obtained after two rounds of infection is used for large-scale protein expression. Cell extracts are prepared and loaded onto a glutathione-Sepharose (Pharmacia) column. After washing, the GST-tagged proteins are then eluted with a glutathione-containing buffer. Purified protein is stored at −70° C. in elution buffer. Tyrosine protein kinase assays with purified GST-IGF-1R and GST-ins-R are carried in a final volume of 30 μl containing 20 mM Tris-HCl, pH 7.6, 10 mM MgCl2, 0.01 mM Na3VO4, 1% DMSO, 1 mM DTT, 3 μg/ml poly(Glu,Tyr) 4:1 and 10 μM ATP (γ-[^33P]-ATP 0.1 μCi). The assay is performed in 96-well plates at ambient temperature for 20 min and terminated by addition of 25 μl 0.05 M EDTA pH 7.0. An aliquot of 40 μl is spotted with a multichannel dispenser on Whatman P81 membranes mounted in a Millipore Microtiter filter manifold connected to a low vacuum source. After elimination of liquid, the membrane is transferred to a sequence of 4 washing baths containing 0.5% H3PO4 and one with EtOH (shaking incubation for 10 min each), dried, mounted onto a Hewlett Packard TopCount manifold added 10 μl Microscint® and counted. Compounds of formula (I) show up to 90% inhibition of Ins-R at 10,000 nM, preferably between 60-90% inhibition. The inhibition of Tek can be determined as follows: The procedure of the expression, purification and assay these kinases has been described. Fabbro et al., Pharmacol. Ther. 82(2-3) 293-301 (1999). In brief, the glutathione S-transferase (GST) gene from the pAcG1 vector (Pharmingen) is excised with EcoRV and EcoRI and inserted into the cloning site of the Fast-Bac baculoviral vector (GIBCO) creating a 5530 bp vector with N-terminal cloning sites derived from the pAcG1 fusion vector (FBG0). The C-terminal cloning site may be any cloning site (from the Fast-Bac vector) downstream of the N-terminal cloning site used. N-terminally GST-fused (pAcG1, Pharmingen) KDR, Flt-1, Flk-1, Tek and PDGFR-β kinase domains are obtained from ProQinase, Freiburg, Germany. Tek is recloned into the FBG1 vector by EcoRI excision and ligation into EcoRI digested FBG1 (FBG1-Tek). The coding sequences for the whole cytoplasmic domain of c-Kit (aa 544-976) and c-Fms (aa 538-972) are amplified by PCR from human uterus and from human bone marrow cDNA libraries (Clontech), respectively. The amplified DNA fragments are fused to GST by cloning them into FBG1 as BamHI-EcoRI insertions, to yield FBG1-c-Kit and FBG1-c-Fms. Tek is recloned into the FBG0 transfer vector by EcoRI excision and ligation into EcoRI digested FBG0 (FBG-Tie2/Tek). FGFR-1 and c-met kinase domains are obtained by PCR from human A431 cells. N-terminal primers contain an overhanging EcoRI site, while C-terminal primers contain a XhoI site to aid cloning into the transfer vectors. After digestion of both the PCR fragments and FBG0 the cleavage products are gel-purified and ligated together to form the kinase constructs (FBG-Met, FBG-FGFR-1).
Viruses for each of the kinases are made according to the protocol supplied by GIBCO. […]

Sequence of HER-1 (P00533 25-1210, species assumed): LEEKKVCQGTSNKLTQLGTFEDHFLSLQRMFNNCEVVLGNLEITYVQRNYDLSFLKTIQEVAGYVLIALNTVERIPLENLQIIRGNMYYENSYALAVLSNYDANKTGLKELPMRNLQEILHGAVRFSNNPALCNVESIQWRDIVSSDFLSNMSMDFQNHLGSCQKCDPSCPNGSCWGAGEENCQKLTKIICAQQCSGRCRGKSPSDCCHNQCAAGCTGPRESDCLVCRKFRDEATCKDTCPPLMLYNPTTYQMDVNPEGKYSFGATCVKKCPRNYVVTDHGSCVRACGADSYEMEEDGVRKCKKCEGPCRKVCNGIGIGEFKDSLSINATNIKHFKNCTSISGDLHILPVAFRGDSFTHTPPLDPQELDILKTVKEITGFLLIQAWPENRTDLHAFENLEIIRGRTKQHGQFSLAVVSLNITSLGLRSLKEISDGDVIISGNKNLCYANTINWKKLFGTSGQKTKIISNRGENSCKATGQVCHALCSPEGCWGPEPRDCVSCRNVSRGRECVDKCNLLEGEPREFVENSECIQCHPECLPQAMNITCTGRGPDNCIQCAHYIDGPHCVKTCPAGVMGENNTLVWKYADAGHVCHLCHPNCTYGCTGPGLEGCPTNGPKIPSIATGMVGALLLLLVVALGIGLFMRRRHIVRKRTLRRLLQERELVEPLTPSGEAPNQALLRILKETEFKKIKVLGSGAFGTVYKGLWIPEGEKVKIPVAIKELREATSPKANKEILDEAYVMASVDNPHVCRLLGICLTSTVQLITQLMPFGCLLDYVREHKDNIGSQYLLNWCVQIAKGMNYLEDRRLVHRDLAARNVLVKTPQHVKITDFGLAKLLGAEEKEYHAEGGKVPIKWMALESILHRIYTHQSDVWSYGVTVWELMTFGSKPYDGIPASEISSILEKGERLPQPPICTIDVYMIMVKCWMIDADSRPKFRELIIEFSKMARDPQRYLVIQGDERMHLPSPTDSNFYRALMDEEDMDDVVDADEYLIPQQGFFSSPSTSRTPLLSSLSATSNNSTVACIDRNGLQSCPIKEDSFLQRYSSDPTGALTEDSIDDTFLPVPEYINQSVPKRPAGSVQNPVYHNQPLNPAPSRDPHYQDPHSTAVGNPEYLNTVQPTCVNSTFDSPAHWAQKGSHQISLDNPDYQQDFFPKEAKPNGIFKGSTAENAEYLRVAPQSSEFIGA
T1 sequence (Q02763 824-1096 limits assumed, species assumed): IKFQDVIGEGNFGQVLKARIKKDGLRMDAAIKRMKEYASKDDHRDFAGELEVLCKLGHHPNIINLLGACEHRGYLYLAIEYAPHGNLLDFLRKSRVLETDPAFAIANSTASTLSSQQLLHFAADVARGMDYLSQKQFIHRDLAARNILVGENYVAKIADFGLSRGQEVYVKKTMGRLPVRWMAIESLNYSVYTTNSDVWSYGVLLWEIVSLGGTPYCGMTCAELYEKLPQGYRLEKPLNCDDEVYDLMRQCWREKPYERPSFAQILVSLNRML

Structure (SMILES) | IC50 [1] [µM] | IC50 [2] [µM] | IC50 [3] [µM]
Cc1nc2c(-c3cccc(N4C[C@@H](C)O[C@@H](C)C4)c3)cnn2c(N)c1-c1cccc(Cl)c1 [Example 89, 6-(3-Chloro-phenyl)-3-[3-((2R,6S)-2,6-dimethyl-morpholin-4-yl)-phenyl]-5-methyl-pyrazolo[1,5-a]pyrimidin-7-ylamine] | > 10 | > 10 | 1 to 10
Cc1nc2c(-c3cccc(N4CCN(CCO)CC4)c3)cnn2c(N)c1-c1cccc(Cl)c1 [Example 90, 2-(4-{3-[7-Amino-6-(3-chloro-phenyl)-5-methyl-pyrazolo[1,5-a]pyrimidin-3-yl]-phenyl}-piperazin-1-yl)-ethanol] | > 10 | > 10 | 1 to 10
CN1CCN(c2cccc(-c3cnn4c(N)c(Cc5ccccc5)cnc34)c2)CC1 [Example 91, 6-Benzyl-3-[3-(4-methyl-piperazin-1-yl)-phenyl]-pyrazolo[1,5-a]pyrimidin-7-ylamine] | > 10 | > 10 | > 10
COc1ccc(-c2cnn3c(N)c(-c4cccc(Cl)c4)c(CF)nc23)cc1OC [Example 92, 6-(3-Chloro-phenyl)-3-(3,4-dimethoxy-phenyl)-5-fluoromethyl-pyrazolo[1,5-a]pyrimidin-7-ylamine] | > 10 | > 10 | > 10
COc1ccc(-c2cnn3c(N)c(-c4cccc(Cl)c4)c(C)nc23)cc1OC [Example 93, 6-(3-Chloro-phenyl)-3-(3,4-dimethoxy-phenyl)-5-methyl-pyrazolo[1,5-a]pyrimidin-7-ylamine] | > 10 | > 10 | > 10
COc1ccc(-c2cnn3c(N)c(-c4ccc(F)c(Cl)c4)c(C)nc23)cc1OC [Example 94, 6-(3-Chloro-4-fluoro-phenyl)-3-(3,4-dimethoxy-phenyl)-5-methyl-pyrazolo[1,5-a]pyrimidin-7-ylamine] | > 10 | > 10 | > 10
COc1ccc(-c2cnn3c(N)c(-c4ccc(F)c(Cl)c4)c(C)nc23)cc1 [Example 95, 6-(3-Chloro-4-fluoro-phenyl)-3-(4-methoxy-phenyl)-5-methyl-pyrazolo[1,5-a]pyrimidin-7-ylamine] | > 10 | > 10 | > 10
COc1ccc(-c2cnn3c(N)c(-c4ccc(F)cc4)c(C)nc23)cc1 [Example 96, 6-(4-Fluoro-phenyl)-3-(4-methoxy-phenyl)-5-methyl-pyrazolo[1,5-a]pyrimidin-7-ylamine] | > 10 | 1 to 10 | > 10
Cc1nc2c(-c3cccc(N4CCN(CCO)CC4)c3)cnn2c(N)c1-c1ccc(F)cc1 [Example 97, 2-(4-{3-[7-Amino-6-(4-fluoro-phenyl)-5-methyl-pyrazolo[1,5-a]pyrimidin-3-yl]-phenyl}-piperazin-1-yl)-ethanol] | > 10 | > 10 | > 10
Cc1nc2c(-c3cccc(N4CCN(C)CC4)c3)cnn2c(N)c1-c1ccc(F)c(F)c1 [Example 98, 6-(3,4-Difluoro-phenyl)-5-methyl-3-[3-(4-methyl-piperazin-1-yl)-phenyl]-pyrazolo[1,5-a]pyrimidin-7-ylamine] | > 10 | > 10 | 1 to 10
COc1ccc(-c2cnn3c(N)c(-c4ccc(F)c(F)c4)c(C)nc23)cc1OC [Example 99, 6-(3,4-Difluoro-phenyl)-3-(3,4-dimethoxy-phenyl)-5-methyl-pyrazolo[1,5-a]pyrimidin-7-ylamine] | > 10 | > 10 | > 10
Cc1nc2c(-c3cccc(N4CCN(CCO)CC4)c3)cnn2c(N)c1-c1ccc(F)c(Cl)c1 [Example 100, 2-(4-{3-[7-Amino-6-(3-chloro-4-fluoro-phenyl)-5-methyl-pyrazolo[1,5-a]pyrimidin-3-yl]-phenyl}-piperazin-1-yl)-ethanol] | > 10 | > 10 | > 10
Cc1nc2c(-c3cccc(N4CCN(CCO)CC4)c3)cnn2c(N)c1-c1ccc(F)c(F)c1 [Example 101, 2-(4-{3-[7-Amino-6-(3,4-difluoro-phenyl)-5-methyl-pyrazolo[1,5-a]pyrimidin-3-yl]-phenyl}-piperazin-1-yl)-ethanol] | > 10 | > 10 | > 10
Cc1nc2c(-c3cccc(N4CCC(N5CCCC5)CC4)c3)cnn2c(N)c1-c1cccc(Cl)c1 [Example 102, 6-(3-Chloro-phenyl)-5-methyl-3-[3-(4-pyrrolidin-1-yl-piperidin-1-yl)-phenyl]-pyrazolo[1,5-a]pyrimidin-7-ylamine] | > 10 | > 10 | 1 to 10
Cc1nc2c(-c3cccc(N4CCC(N5CCCC5)CC4)c3)cnn2c(N)c1-c1ccc(F)cc1 [Example 103, 6-(4-Fluoro-phenyl)-5-methyl-3-[3-(4-pyrrolidin-1-yl-piperidin-1-yl)-phenyl]-pyrazolo[1,5-a]pyrimidin-7-ylamine] | > 10 | > 10 | > 10
Cc1nc2c(-c3cccc(N4CC[N+](C)([O-])CC4)c3)cnn2c(N)c1-c1ccc(F)cc1 [Example 106, 6-(4-Fluoro-phenyl)-5-methyl-3-[3-(4-methyl-4-oxy-piperazin-1-yl)-phenyl]-pyrazolo[1,5-a]pyrimidin-7-ylamine] | > 10 | > 10 | > 10
Cc1nc2c(-c3cccc([N+]4([O-])CC[N+](C)([O-])CC4)c3)cnn2c(N)c1-c1ccc(F)cc1 (stereo not drawn) [Example 107, 6-(4-Fluoro-phenyl)-5-methyl-3-[3-(4-methyl-1,4-dioxy-piperazin-1-yl)-phenyl]-pyrazolo[1,5-a]pyrimidin-7-ylamine] | > 10 | > 10 | > 10
